Legend:
JAK-2 enzyme = JAK-2 enzyme (Homo sapiens, UniProt O60674); assay: JAK2 inhibition assay (radiometric 33P filter assay); assay type: biochemical; conditions: 15 μM poly(Glu)4Tyr, 12 μM ATP; read-out: JAK2 inhibition data (Ki)
Protocol: (§1) Compounds were screened for their ability to inhibit JAK using the assay shown below. Reactions were carried out in a kinase buffer containing 100 mM HEPES (pH 7.4), 1 mM DTT, 10 mM MgCl2, 25 mM NaCl, and 0.01% BSA.
(§2) Substrate concentrations in the assay were 5 μM ATP (200 uCi/μmole ATP) and 1 μM poly(Glu)4Tyr. Reactions were carried out at 25° C. and 1 nM JAK3.
(§3) To each well of a 96 well polycarbonate plate was added 1.5 μl of a candidate JAK3 inhibitor along with 50 μl of kinase buffer containing 2 μM poly(Glu)4Tyr and 10 μM ATP. This was then mixed and 50 μl of kinase buffer containing 2 nM JAK3 enzyme was added to start the reaction. After 20 minutes at room temperature (25° C.), the reaction was stopped with 50 μl of 20% trichloroacetic acid (TCA) that also contained 0.4 mM ATP. The entire contents of each well were then transferred to a 96 well glass fiber filter plate using a TomTek Cell Harvester. After washing, 60 μl of scintillation fluid was added and ^33P incorporation detected on a Perkin Elmer TopCount.
The assays were as described above in Example 25 except that JAK-2 enzyme was used, the final poly(Glu)4Tyr concentration was 15 μM, and final ATP concentration was 12 μM.

JAK3 = biological target: T1, JAK3 (Homo sapiens, UniProt P52333); assay: JAK3 inhibition assay (radiometric 33P filter assay); assay type: biochemical; conditions: 1 μM poly(Glu)4Tyr, 5 μM ATP, 1 nM JAK3, 25° C.; read-out: JAK3 inhibition data (Ki)
T1 sequence (P52333 1-1124): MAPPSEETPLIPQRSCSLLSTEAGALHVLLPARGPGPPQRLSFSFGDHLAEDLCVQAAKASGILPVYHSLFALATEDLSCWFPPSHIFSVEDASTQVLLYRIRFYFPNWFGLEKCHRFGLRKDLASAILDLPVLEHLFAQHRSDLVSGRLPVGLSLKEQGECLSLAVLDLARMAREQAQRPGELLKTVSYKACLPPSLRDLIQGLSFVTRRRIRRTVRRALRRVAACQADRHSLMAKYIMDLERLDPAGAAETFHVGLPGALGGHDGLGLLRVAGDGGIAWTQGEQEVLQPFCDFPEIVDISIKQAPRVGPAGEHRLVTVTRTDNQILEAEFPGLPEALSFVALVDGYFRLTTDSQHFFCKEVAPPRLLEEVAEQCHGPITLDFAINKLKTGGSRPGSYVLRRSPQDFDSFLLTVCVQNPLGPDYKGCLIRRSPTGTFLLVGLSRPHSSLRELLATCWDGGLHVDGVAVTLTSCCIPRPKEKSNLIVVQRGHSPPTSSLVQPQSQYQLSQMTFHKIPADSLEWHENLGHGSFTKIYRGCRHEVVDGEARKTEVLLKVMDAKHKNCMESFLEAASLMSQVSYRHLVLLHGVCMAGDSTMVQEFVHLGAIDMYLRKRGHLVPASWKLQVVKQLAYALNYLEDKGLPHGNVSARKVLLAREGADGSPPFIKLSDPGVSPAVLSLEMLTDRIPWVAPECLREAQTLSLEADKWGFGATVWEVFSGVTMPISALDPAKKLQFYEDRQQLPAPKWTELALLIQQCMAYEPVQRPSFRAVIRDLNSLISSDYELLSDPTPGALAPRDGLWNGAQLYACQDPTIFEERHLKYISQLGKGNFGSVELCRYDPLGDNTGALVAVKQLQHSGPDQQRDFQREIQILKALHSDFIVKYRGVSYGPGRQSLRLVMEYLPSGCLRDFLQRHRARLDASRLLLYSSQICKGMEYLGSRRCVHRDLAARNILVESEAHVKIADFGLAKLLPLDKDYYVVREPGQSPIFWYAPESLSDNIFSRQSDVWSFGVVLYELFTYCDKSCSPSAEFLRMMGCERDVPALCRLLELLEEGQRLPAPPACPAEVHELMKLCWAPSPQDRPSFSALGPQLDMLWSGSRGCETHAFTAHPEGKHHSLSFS
Protocol: as §1, §2, §3

Sequence of JAK-2 enzyme (O60674 whole entry, species assumed): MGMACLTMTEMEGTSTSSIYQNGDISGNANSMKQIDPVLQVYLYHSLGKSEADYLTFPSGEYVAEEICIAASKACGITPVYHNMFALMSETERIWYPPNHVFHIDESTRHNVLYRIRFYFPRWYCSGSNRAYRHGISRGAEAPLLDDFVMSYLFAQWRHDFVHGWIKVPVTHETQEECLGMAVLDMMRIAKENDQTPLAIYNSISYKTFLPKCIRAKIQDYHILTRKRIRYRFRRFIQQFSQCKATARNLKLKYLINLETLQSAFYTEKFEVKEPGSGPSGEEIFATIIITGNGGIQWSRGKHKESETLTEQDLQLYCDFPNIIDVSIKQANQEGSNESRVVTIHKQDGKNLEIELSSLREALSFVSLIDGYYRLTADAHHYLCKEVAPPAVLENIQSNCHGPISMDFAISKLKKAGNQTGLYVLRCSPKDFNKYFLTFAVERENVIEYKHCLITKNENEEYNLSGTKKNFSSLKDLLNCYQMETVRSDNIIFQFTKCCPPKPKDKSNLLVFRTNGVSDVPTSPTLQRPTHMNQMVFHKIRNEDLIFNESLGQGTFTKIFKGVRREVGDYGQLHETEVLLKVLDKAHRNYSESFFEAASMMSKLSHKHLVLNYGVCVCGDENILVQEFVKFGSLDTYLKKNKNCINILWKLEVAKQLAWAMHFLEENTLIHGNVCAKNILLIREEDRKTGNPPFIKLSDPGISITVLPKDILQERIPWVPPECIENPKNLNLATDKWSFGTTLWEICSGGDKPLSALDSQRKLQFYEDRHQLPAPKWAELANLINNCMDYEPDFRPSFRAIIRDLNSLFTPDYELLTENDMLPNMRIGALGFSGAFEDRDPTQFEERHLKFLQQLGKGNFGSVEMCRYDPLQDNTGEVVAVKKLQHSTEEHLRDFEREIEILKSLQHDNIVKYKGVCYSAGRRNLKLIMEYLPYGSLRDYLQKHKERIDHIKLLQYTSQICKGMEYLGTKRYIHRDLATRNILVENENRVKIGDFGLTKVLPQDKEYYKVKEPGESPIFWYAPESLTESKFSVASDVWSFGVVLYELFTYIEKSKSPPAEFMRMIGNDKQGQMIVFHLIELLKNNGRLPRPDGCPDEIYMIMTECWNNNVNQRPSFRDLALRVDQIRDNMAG

SMILES | Ki (JAK-2 enzyme) | Ki (JAK3)
COC1CCCC(C(=O)Nc2ccc(Nc3nc(N)n(-c4cc(N5CCCN(C(C)=O)CC5)ncn4)n3)cc2)C1 (stereo not shown) [Compound 32] | < 50 nM | < 50 nM
COC(=O)N1CCCN(c2cc(-n3nc(Nc4ccc(N5CCOCC5)cc4)nc3N)ncn2)CC1 [Compound 8] | < 50 nM | < 50 nM
CC(=O)N1[C@H](C)CN(c2cc(-n3nc(Nc4ccc(N5CCOCC5)cc4)nc3N)ccn2)C[C@@H]1C [Compound 17] | < 50 nM | < 50 nM
Nc1nc(Nc2ccc(N3CCOCC3)cc2)nn1-c1cc(N2CCN3C(=O)CC[C@@H]3C2)ncn1 [Compound 23] | < 50 nM | < 50 nM
Nc1nc(Nc2ccc(N3CCOCC3)cc2)nn1-c1cc(N2CCNC(=O)CC2)ncn1 [Compound 3] | < 50 nM | < 50 nM
CC(=O)N1CCCN(c2cc(-n3nc(Nc4ccc(N5CCNCC5)cc4)nc3N)ncn2)CC1 [Compound 42] | < 50 nM | < 50 nM
CCOC(=O)N1CCN(c2ccc(Nc3nc(N)n(-c4cc(N5CCCN(C(C)=O)CC5)ncn4)n3)cc2)CC1 [Compound 46] | < 50 nM | < 50 nM
CC(=O)N1CCCN(c2cc(-n3nc(Nc4ccc(NC(=O)c5ccoc5)cc4)nc3N)ncn2)CC1 [Compound 29] | < 50 nM | < 50 nM
CCCC(=O)N1CCN(c2ccc(Nc3nc(N)n(-c4cc(N5CCCN(C(C)=O)CC5)ncn4)n3)cc2)CC1 [Compound 37] | < 50 nM | < 50 nM
CCCOC(=O)N1CCN(c2ccc(Nc3nc(N)n(-c4cc(N5C[C@@H](C)N(C(C)=O)[C@@H](C)C5)ncn4)n3)cc2)CC1 [Compound 55] | < 50 nM | < 50 nM
CC(=O)N1CCCN(c2cc(-n3nc(Nc4ccc(NC(=O)c5ccncc5)cc4)nc3N)ncn2)CC1 [Compound 28] | < 50 nM | < 50 nM
CS(=O)(=O)N1CCCN(c2cc(-n3nc(Nc4ccc(N5CCOCC5)cc4)nc3N)ncn2)CC1 [Compound 7] | < 50 nM | < 50 nM
CC(=O)N1CCCN(c2cc(-n3nc(Nc4ccc(N5CCN(C(=O)C(C)C)CC5)cc4)nc3N)ncn2)CC1 [Compound 44] | < 50 nM | < 50 nM
CCN(CC)c1ccc(Nc2nc(N)n(-c3cc(N4CCCN(C(C)=O)CC4)ncn3)n2)cc1 [Compound 12] | < 50 nM | < 50 nM
CC(=O)N1CCCN(c2cc(-n3nc(Nc4ccc(N5CCN(C(=O)Oc6ccc(C)cc6)CC5)cc4)nc3N)ncn2)CC1 [Compound 51] | < 50 nM | < 50 nM
CC(=O)N1CCCN(c2cc(-n3nc(Nc4ccc(N5CCN(C(=O)CC(C)C)CC5)cc4)nc3N)ncn2)CC1 [Compound 38] | < 50 nM | < 50 nM
Nc1nc(Nc2ccc(N3CCOCC3)cc2)nn1-c1cc(N2CCCCCC2)ncn1 [Compound 15] | < 50 nM | < 50 nM
CC(=O)N1[C@H](C)CN(c2cc(-n3nc(Nc4ccc(N5CCN(C(=O)NC(C)(C)C)CC5)cc4)nc3N)ncn2)C[C@@H]1C [Compound 63] | < 50 nM | < 50 nM

Results, then the molecule that gave them:

Ki (JAK-2 enzyme) | Ki (JAK3) | SMILES
< 50 nM | < 50 nM | COC(=O)Nc1ccc(Nc2nc(N)n(-c3cc(N4CCCN(C(C)=O)CC4)ncn3)n2)cc1 [Compound 90]
< 50 nM | < 50 nM | CCCOC(=O)Nc1ccc(Nc2nc(N)n(-c3cc(N4C[C@@H](C)N(C(C)=O)[C@@H](C)C4)ncn3)n2)cc1 [Compound 77]
< 50 nM | < 50 nM | COC(=O)N(C)c1ccc(Nc2nc(N)n(-c3cc(N4CCCN(C(C)=O)CC4)ncn3)n2)cc1 [Compound 126]
50 to 500 nM | 50 to 500 nM | CC(C)OC(=O)N1CCN(c2ccc(Nc3nc(N)n(-c4ccnc(N5CCCN(S(C)(=O)=O)CC5)c4)n3)cc2)CC1 [Compound 168]
< 50 nM | < 50 nM | CCCOC(=O)N(C)c1ccc(Nc2nc(N)n(-c3cc(N4CCCN(C(C)=O)CC4)ncn3)n2)cc1 [Compound 129]
< 50 nM | < 50 nM | CC(=O)N1[C@H](C)CN(c2cc(-n3nc(Nc4ccc(NC(=O)OC(C)C)cc4)nc3N)ccn2)C[C@@H]1C [Compound 103]
< 50 nM | < 50 nM | CCCNC(=O)Nc1ccc(Nc2nc(N)n(-c3ccnc(N4C[C@@H](C)N(C(C)=O)[C@@H](C)C4)c3)n2)cc1 [Compound 106]
< 50 nM | < 50 nM | CC(=O)N1CCCN(c2cc(-n3nc(Nc4ccc(NC(=O)OCC(C)C)cc4)nc3N)ncn2)CC1 [Compound 94]
< 50 nM | < 50 nM | CCOC(=O)Nc1ccc(Nc2nc(N)n(-c3cc(N4C[C@@H](C)N(C(C)=O)[C@@H](C)C4)ncn3)n2)cc1 [Compound 76]
< 50 nM | < 50 nM | CCNC(=O)Nc1ccc(Nc2nc(N)n(-c3cc(N4C[C@@H](C)N(C(C)=O)[C@@H](C)C4)ncn3)n2)cc1 [Compound 67]
< 50 nM | < 50 nM | CC(=O)N1[C@H](C)CN(c2cc(-n3nc(Nc4ccc(N5CCN(C(=O)NC6CCCCC6)CC5)cc4)nc3N)ncn2)C[C@@H]1C [Compound 64]
< 50 nM | < 50 nM | CCCOC(=O)N(C)c1ccc(Nc2nc(N)n(-c3cc(N4C[C@@H](C)N(C(C)=O)[C@@H](C)C4)ncn3)n2)cc1 [Compound 118]
< 50 nM | < 50 nM | CCOC(=O)CCNC(=O)Nc1ccc(Nc2nc(N)n(-c3cc(N4CCCN(C(C)=O)CC4)ncn3)n2)cc1 [Compound 89]
50 to 500 nM | 50 to 500 nM | CCOC(=O)N1CCN(c2ccc(Nc3nc(N)n(-c4ccnc(N5CCCN(C(=O)OC(C)C)CC5)c4)n3)cc2)CC1 [Compound 151]
50 to 500 nM | 50 to 500 nM | CCCOC(=O)N1CCN(c2ccc(Nc3nc(N)n(-c4ccnc(N5CCCN(C(=O)OC(C)C)CC5)c4)n3)cc2)CC1 [Compound 161]
< 50 nM | < 50 nM | CCCOC(=O)N1CCN(c2ccc(Nc3nc(N)n(-c4cc(N5CCCN(C(=O)CC#N)CC5)ncn4)n3)cc2)CC1 [Compound 125]
< 50 nM | < 50 nM | CC(=O)N1CCCN(c2cc(-n3nc(Nc4ccc(NC(=O)NC(C)C)cc4)nc3N)ncn2)CC1 [Compound 86]
50 to 500 nM | 50 to 500 nM | CCCOC(=O)N1CCCN(c2cc(-n3nc(Nc4ccc(N5CCN(S(=O)(=O)CC)CC5)cc4)nc3N)ccn2)CC1 [Compound 154]
50 to 500 nM | 50 to 500 nM | CCS(=O)(=O)N1CCN(c2ccc(Nc3nc(N)n(-c4ccnc(N5CCCN(C(=O)OC)CC5)c4)n3)cc2)CC1 [Compound 152]
< 50 nM | < 50 nM | CCOC(=O)Nc1ccc(Nc2nc(N)n(-c3cc(N4CCCN(C(C)=O)CC4)ncn3)n2)cc1 [Compound 91]
< 50 nM | < 50 nM | CC(=O)N1[C@H](C)CN(c2cc(-n3nc(Nc4ccc(NC(=O)OCC(C)C)cc4)nc3N)ncn2)C[C@@H]1C [Compound 79]
< 50 nM | < 50 nM | CNc1ccc(Nc2nc(N)n(-c3cc(N4CCCN(C(C)=O)CC4)ncn3)n2)cc1 [Compound 117]
< 50 nM | < 50 nM | CCOC(=O)N1CCN(c2ccc(Nc3nc(N)n(-c4cc(N5CCCN(C(=O)CC#N)CC5)ncn4)n3)cc2)CC1 [Compound 124]
50 to 500 nM | 50 to 500 nM | CCCOC(=O)N1CCN(c2ccc(Nc3nc(N)n(-c4ccnc(N5CCCN(S(=O)(=O)C(C)C)CC5)c4)n3)cc2)CC1 [Compound 165]
< 50 nM |  | CC(=O)N1[C@H](C)CN(c2cc(-n3nc(Nc4ccc(NC(=O)O[C@@H]5C[C@@H](C)CC[C@@H]5C(C)C)cc4)nc3N)ncn2)C[C@@H]1C [Compound 83]
